Measurements published in patent US20240165087A1, “APPLICATION OF RILUZOLE- AND BORNEOL-CONTAINING COMPOSITION IN PREPARATION OF MEDICATION FOR TREATING CEREBROVASCULAR DISEASES” (NEURODAWN PHARMACEUTICAL CO., LTD., priority 2021, published 2024).

How the values were obtained:
primary cortical neurons = test: NMDA-induced excitatory injury test on primary cortical neurons (Luminescent Cell Viability Assay); type: cell-based, rat
Protocol: Pregnant SD rats at 18 days of pregnancy were sacrificed by cervical dislocation. The uterus of rats was dissected and the brain of E18 fetal rats was taken out. The cerebral cortex tissue of the fetal rats was separated into ice-cold DMEM. The meninges and blood vessels on the cortical tissue were removed under a dissecting microscope. The cortical tissue was transferred into ice-cold DMEM, cut into pieces (about 1 mm^3), and digested with trypsin at 37° C. for 10 min. The digestion was stopped with FBS. The obtained cells were blown gently with a Pasteur pipette and passed through a 200-mesh sieve. The filtered cell suspension was transferred to a 15 mL centrifuge tube, and centrifuged at 1000 rpm for 5 min. The supernatant was discarded. Then the cell mass at the bottom of the centrifuge tube was blown gently with 37° C.-prewarmed complete medium (Neurobasal+B27+GlutaMax+1% P/S). The cells were counted using a hemocytometer, diluted to 5×10^5 cells/mL with complete medium, and seeded in a 96-well plate coated with PDL (100 μL/well). Half of the cell culture medium was replaced with complete medium the next day. […] After the inducing buffer was discarded, the cells were washed once with a Locke's buffer containing 1 mM MgCl2, and recovered to be incubated for 4 h by replacing with a complete medium (100 μL/well). The viability of the primary neuron cells was determined by Luminescent Cell Viability Assay kit. According to the instruction, reagents were added at 100 μL/well, and shaking was performed for 10 min. […] Calculation formula: relative neuron activity V (%)=(LUM-LUMbackground)/(LUMnormal control group-LUMbackground group)×100%. LUMbackground was the background reading of the Luminescent Cell Viability Assay reagent added to the cell-free complete medium well. […] Fitting of EC50 of compounds: Log[compound concentration] was used as the abscissa and the relative inhibition rate was used as the ordinate. Log(inhibitor) vs. response-variable slope (four parameters) curve was fitted by Prism8 (GraphPad) to obtain the IC50 of the compounds. […] After the inducing buffer was discarded, the cells were washed once with a Locke's buffer containing 1 mM MgCl2, and recovered to be incubated for 4 h by replacing with a complete medium (100 μL/well). […] After the inducing buffer was discarded, the cells were washed once with a Locke's buffer containing 1 mM MgCl2, and recovered to be incubated for 4 h by replacing with a complete medium (100 μL/well). […] After the inducing buffer was discarded, the cells were washed once with a Locke's buffer containing 1 mM MgCl2, and recovered to be incubated for 4 h by replacing with a complete medium (100 μL/well). […] After the inducing buffer was discarded, the cells were washed once with a Locke's buffer containing 1 mM MgCl2, and recovered to be incubated for 4 h by replacing with a complete medium (100 μL/well).

MCAO rats = test: Rat focal cerebral ischemia-reperfusion model (MCAO), neurological deficit score and cerebral infarction area; type: in vivo; settings: Example 6
From the text: The rat focal cerebral ischemia-reperfusion model was established by internal carotid artery suture method. The limbs (hind limbs above the knee joint and forelimbs above the wrist joint) and head of an anesthetized rat were tightened with rubber bands. The animal was fixed on an operating table in supine position, and was shaved with an animal shaver from the head to the chest, and the skin was disinfected with alcohol. The neck of the rat was cut at the midline, and the subcutaneous tissue was bluntly separated. The thin layer of fascia on the surface of the anterior triangle of the neck was separated, the lower side-lower edge of the clavicular hyoid muscle was pulled up, and the longitudinally pulsating artery parallel to this muscle can be seen. The arterial shell was opened, and the bifurcation of the right carotid artery was exposed. The right common carotid artery, external carotid artery and internal carotid artery were separated. The vagus nerve was gently stripped, and the external carotid artery was ligated and cut. The proximal end of the common carotid artery was clamped. An incision was made at the distal end from the ligature of the external carotid artery, and was inserted with a suture line, which was passed through the bifurcation of the common carotid artery into the internal carotid artery, and then was inserted slowly until reaching slight resistance (approximately 20 mm from the bifurcation), so as to block all blood supply to the middle cerebral artery. The suture line was slightly fixed below the incision of the external carotid artery with silk thread. The silk thread clamping the proximal end of the common carotid artery was loosened. A gauze soaked in sterile saline was covered on the wound, and the rat was placed on a heat preservation pad to keep warm. 2.0 h after cerebral ischemia on the right side, the suture line was pulled out gently to restore the blood supply for reperfusion. The external carotid artery was ligated with silk thread fixing the suture line. The skin was stitched, and disinfected. The rats were placed in clean feed, and their general condition and respiration were observed until they woke up from anesthesia. The rats were provided with food and water, and commonly reared.
After the cerebral ischemia model was established, the animals were assigned to each group in a single-blind manner with equal probability. After reperfusion, the animals were immediately administered intravenously with the drugs once. The animals in the model group were administered with an equal volume of normal saline. Neurological deficit symptoms were evaluated 24 hours after cerebral ischemia, the animals were sacrificed, and their brains were taken out, stained, and photographed for determining the area of cerebral infarction.
Neurological deficit symptoms were evaluated using the modified Bederson 5-point scale. The neurological deficit symptoms of rats after cerebral ischemia were evaluated by a single-blind method. […] After scoring, the scoring results of various markers were submitted to the designer, who unblinded and obtained the scoring of each animal in each experimental group.
The degree of cerebral infarction was determined by TTC staining. After the evaluation of the symptoms of neurological deficits was completed, the animals were sacrificed with CO2. The brain was taken out by cutting off head. The olfactory bulb, cerebellum and lower brainstem were removed. The blood on the surface of the brain was washed with normal saline, and the residual water on the surface was removed. The brain was placed at −20° C. for 20 min, then taken out, immediately cut to a coronal section vertically downward at the crossing plane of the line of sight, and sliced backward every 2 mm. The brain slices were incubated in 1% TTC staining solution (at 37° C. for 30 min). The normal brain tissue was stained into dark red, and the ischemic brain tissue was stained into pale white.

[1] = molecular target: T1, recombinant human GABAAR (α1β2γ2L) (Homo sapiens, UniProt P14867+P18507+P47870); settings: Xenopus laevis oocytes, cited from earlier work
T1 construct: host or cells: Xenopus laevis oocytes
T1 sequence (P14867 28-456): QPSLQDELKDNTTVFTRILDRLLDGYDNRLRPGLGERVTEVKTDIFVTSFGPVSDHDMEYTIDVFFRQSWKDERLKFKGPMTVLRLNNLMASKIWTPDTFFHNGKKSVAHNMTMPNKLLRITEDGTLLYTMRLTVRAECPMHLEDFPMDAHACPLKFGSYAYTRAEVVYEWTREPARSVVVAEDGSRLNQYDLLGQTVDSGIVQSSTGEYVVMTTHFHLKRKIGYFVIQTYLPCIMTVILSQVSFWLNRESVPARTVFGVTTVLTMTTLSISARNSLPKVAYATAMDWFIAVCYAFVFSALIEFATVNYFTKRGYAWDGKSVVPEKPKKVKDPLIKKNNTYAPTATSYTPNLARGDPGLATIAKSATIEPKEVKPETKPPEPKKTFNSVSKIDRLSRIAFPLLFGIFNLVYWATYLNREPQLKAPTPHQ
T1 sequence (P47870 25-512 limits assumed): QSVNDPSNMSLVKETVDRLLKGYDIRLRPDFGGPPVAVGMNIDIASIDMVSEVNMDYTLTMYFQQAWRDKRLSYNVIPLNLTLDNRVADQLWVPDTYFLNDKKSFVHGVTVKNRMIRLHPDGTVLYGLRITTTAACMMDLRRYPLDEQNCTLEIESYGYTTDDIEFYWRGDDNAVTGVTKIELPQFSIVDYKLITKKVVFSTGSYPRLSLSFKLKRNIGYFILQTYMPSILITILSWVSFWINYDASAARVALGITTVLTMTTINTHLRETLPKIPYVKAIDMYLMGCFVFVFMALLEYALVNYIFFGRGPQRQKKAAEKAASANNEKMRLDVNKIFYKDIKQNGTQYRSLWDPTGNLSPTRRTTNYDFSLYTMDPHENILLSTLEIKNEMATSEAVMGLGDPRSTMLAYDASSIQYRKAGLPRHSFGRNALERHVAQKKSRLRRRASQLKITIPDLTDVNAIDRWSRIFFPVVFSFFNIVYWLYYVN
T1 sequence (P18507 40-475): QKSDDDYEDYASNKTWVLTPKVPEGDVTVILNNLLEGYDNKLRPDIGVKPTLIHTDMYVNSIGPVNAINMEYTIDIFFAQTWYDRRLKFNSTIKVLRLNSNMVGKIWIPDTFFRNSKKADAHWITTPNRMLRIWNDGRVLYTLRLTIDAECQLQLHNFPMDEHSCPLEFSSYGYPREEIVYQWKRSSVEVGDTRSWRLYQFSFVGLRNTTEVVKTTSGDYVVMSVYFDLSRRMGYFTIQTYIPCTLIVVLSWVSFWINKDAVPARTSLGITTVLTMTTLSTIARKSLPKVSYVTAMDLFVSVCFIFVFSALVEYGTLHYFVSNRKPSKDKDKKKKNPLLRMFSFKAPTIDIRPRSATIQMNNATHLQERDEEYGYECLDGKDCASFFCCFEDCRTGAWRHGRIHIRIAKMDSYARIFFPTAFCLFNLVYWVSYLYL

[2] = molecular target: N-methyl-D-aspartate (NMDA) receptors; settings: read-out: IC50, noncompetitive block of NMDA receptors; cited from earlier work
kainic acid receptors = settings: read-out: IC50, block of kainic acid receptors; cited from earlier work

Structure (SMILES): CC1(C)[C@@H]2CC[C@@]1(C)[C@@H](O)C2 [(+)-2-Borneol]
- viability of neurons with excitatory injury (primary cortical neurons; Example 1, 0.41-3.7 μM): concentration-dependently increased
- viability of neurons with excitatory injury (primary cortical neurons; Example 1, 10-100 μM): tended to decrease
- viability of neurons with NMDA-induced excitatory injury (primary cortical neurons; Example 2, alone at 3.7 μM): significantly improve
- Fa, protecting neurons from excitatory injury (primary cortical neurons; Example 3, (+)-2-borneol 0.5 μM): 0.014
- Fa, protecting neurons from excitatory injury (primary cortical neurons; Example 3, (+)-2-borneol 1 μM): 0.022
- Fa, protecting neurons from excitatory injury (primary cortical neurons; Example 3, (+)-2-borneol 2 μM): 0.152
- Fa, protecting neurons from excitatory injury (primary cortical neurons; Example 3, (+)-2-borneol 4 μM): 0.22
- Fa, protecting neurons from excitatory injury (primary cortical neurons; Example 3, (+)-2-borneol 8 μM): 0.231
- viability of neurons with injury induced by NMDA (primary cortical neurons; Example 3, riluzole 10-160 μM, (+)-2-borneol 0.5-8 μM, compositions 20:1): concentration-dependently increase
- Fa, protecting neurons from excitatory injury (primary cortical neurons; Example 4, (+)-2-borneol 0.5 μM): 0.042
- Fa, protecting neurons from excitatory injury (primary cortical neurons; Example 4, (+)-2-borneol 1 μM): 0.069
- Fa, protecting neurons from excitatory injury (primary cortical neurons; Example 4, (+)-2-borneol 2 μM): 0.086
- Fa, protecting neurons from excitatory injury (primary cortical neurons; Example 4, (+)-2-borneol 4 μM): 0.209
- Fa, protecting neurons from excitatory injury (primary cortical neurons; Example 4, (+)-2-borneol 8 μM): 0.205
- viability of neurons with injury induced by NMDA (primary cortical neurons; Example 4, riluzole 2.5-40 μM, (+)-2-borneol 0.5-8 μM, compositions 5:1): concentration-dependently increase
- Fa, protecting neurons from excitatory injury (primary cortical neurons; Example 5, (+)-2-borneol 0.5 μM): 0.042
- Fa, protecting neurons from excitatory injury (primary cortical neurons; Example 5, (+)-2-borneol 1 μM): 0.077
- Fa, protecting neurons from excitatory injury (primary cortical neurons; Example 5, (+)-2-borneol 2 μM): 0.128
- Fa, protecting neurons from excitatory injury (primary cortical neurons; Example 5, (+)-2-borneol 4 μM): 0.205
- Fa, protecting neurons from excitatory injury (primary cortical neurons; Example 5, (+)-2-borneol 8 μM): 0.202
- viability of neurons with injury induced by NMDA / protective effect (primary cortical neurons; Example 5, riluzole 0.5-8 μM, (+)-2-borneol 0.5-8 μM, compositions 1:1): concentration-dependently increase
- Emax (primary cortical neurons; Rattus norvegicus, Primary cortical neuron, Example 1, concentration-inhibition rate curve, read-out: Emax (relative inhibition rate)): 15%
- neurological deficit score vs MCAO model group (MCAO rats; 1 mg/kg i.v. once after reperfusion, 24 hours): significantly reduced
- cerebral infarction area vs MCAO model group (MCAO rats; 0.5 and 1 mg/kg i.v. once after reperfusion, 24 hours): dose-dependently, significantly reduced
- Fa, reducing the area of cerebral infarction in MCAO rats (MCAO rats; (+)-2-borneol 0.5 mg/kg): 0.157
- Fa, reducing the area of cerebral infarction in MCAO rats (MCAO rats; (+)-2-borneol 1 mg/kg): 0.256
- neurological deficit score of MCAO rats, dose dependence (MCAO rats; i.v. once after reperfusion, evaluated 24 hours after cerebral ischemia): dose-dependently reduce
- EC50 ([1]; low concentration of GABA, read-out: EC50, enhancement of GABAAR function): 248 µM
- enhancement of function of GABAAR induced by low concentration of GABA [1]: more than 10 times

Structure (SMILES): Nc1nc2ccc(OC(F)(F)F)cc2s1 [Riluzole, 2-Amino-6-trifluoromethoxybenzothiazole]
- neurological deficit score vs MCAO model group (MCAO rats; 8 mg/kg i.v. once after reperfusion, 24 hours): significantly reduced
- IC50 [2]: 18 µM
- IC50 (kainic acid receptors): 167 µM
